Results taken from the NIST ThermoML archive (doi:10.1021/je5010214).
± gives the expanded uncertainty stated by the source.

Settings: Liquid, Vibrating tube method

CCCCO [butan-1-ol]
Settings | mass density [kg/m3]
323.15 K, 34081 kPa | 811.155 ± 0.86
323.15 K, 35113 kPa | 811.773 ± 0.86
323.15 K, 37953 kPa | 813.623 ± 0.87
323.15 K, 42011 kPa | 816.075 ± 0.88
323.15 K, 48025 kPa | 819.642 ± 0.89
323.15 K, 49934 kPa | 820.799 ± 0.9
323.15 K, 52114 kPa | 821.994 ± 0.9
323.15 K, 54964 kPa | 823.594 ± 0.91
323.15 K, 58045 kPa | 825.293 ± 0.92
323.15 K, 60050 kPa | 826.448 ± 0.92
323.15 K, 62131 kPa | 827.565 ± 0.93
323.15 K, 64999 kPa | 829.093 ± 0.93
323.16 K, 920.7 kPa | 786.888 ± 0.81
323.16 K, 27958 kPa | 807.28 ± 0.85
323.16 K, 30055 kPa | 808.674 ± 0.85
323.16 K, 33067 kPa | 810.61 ± 0.86
323.16 K, 40047 kPa | 814.861 ± 0.88
323.16 K, 44937 kPa | 817.856 ± 0.89
323.16 K, 66131 kPa | 829.687 ± 0.94
328.15 K, 97.9 kPa | 781.987 ± 0.81
328.15 K, 289.9 kPa | 782.179 ± 0.81
328.15 K, 897.5 kPa | 782.733 ± 0.81
328.15 K, 994.1 kPa | 782.825 ± 0.81
328.15 K, 1988.8 kPa | 783.741 ± 0.81
328.15 K, 2996.7 kPa | 784.66 ± 0.81
328.15 K, 5013.4 kPa | 786.446 ± 0.81
328.15 K, 6974.9 kPa | 788.15 ± 0.81
328.15 K, 9017 kPa | 789.881 ± 0.82
328.15 K, 10040 kPa | 790.727 ± 0.82
328.15 K, 24924 kPa | 802.164 ± 0.85
328.15 K, 27979 kPa | 804.324 ± 0.85
328.15 K, 29958 kPa | 805.68 ± 0.86
328.15 K, 32060 kPa | 807.104 ± 0.86
328.15 K, 33066 kPa | 807.772 ± 0.86
328.15 K, 33107 kPa | 807.703 ± 0.86
328.15 K, 34013 kPa | 808.285 ± 0.86
328.15 K, 35030 kPa | 808.989 ± 0.87
328.15 K, 38010 kPa | 810.915 ± 0.87
328.15 K, 39969 kPa | 812.181 ± 0.88
328.15 K, 41959 kPa | 813.311 ± 0.88
328.15 K, 44953 kPa | 815.144 ± 0.89
328.15 K, 47978 kPa | 816.959 ± 0.9
328.15 K, 49927 kPa | 818.128 ± 0.9
328.15 K, 51997 kPa | 819.32 ± 0.91
328.15 K, 54947 kPa | 821.045 ± 0.91
328.15 K, 57939 kPa | 822.658 ± 0.92
328.15 K, 59991 kPa | 823.77 ± 0.93
328.15 K, 61982 kPa | 824.89 ± 0.93
328.15 K, 65032 kPa | 826.439 ± 0.94
328.15 K, 66046 kPa | 826.965 ± 0.94
328.16 K, 501 kPa | 782.371 ± 0.81
328.16 K, 12210 kPa | 792.522 ± 0.82
328.16 K, 15055 kPa | 794.783 ± 0.83
328.16 K, 18061 kPa | 797.122 ± 0.83
328.16 K, 20279 kPa | 798.799 ± 0.84
328.16 K, 22013 kPa | 800.057 ± 0.84
333.15 K, 532.6 kPa | 779.903 ± 0.81
333.15 K, 897.8 kPa | 780.245 ± 0.81
333.15 K, 1987.2 kPa | 781.249 ± 0.81
333.15 K, 3023.4 kPa | 782.177 ± 0.81
333.15 K, 4997.4 kPa | 783.921 ± 0.81
333.15 K, 7002.4 kPa | 785.686 ± 0.82
333.15 K, 9032 kPa | 787.401 ± 0.82
333.15 K, 10210 kPa | 788.367 ± 0.82
333.15 K, 15008 kPa | 792.251 ± 0.83
333.15 K, 22034 kPa | 797.567 ± 0.84
333.15 K, 28040 kPa | 801.782 ± 0.85
333.15 K, 30016 kPa | 803.156 ± 0.86
333.15 K, 32067 kPa | 804.524 ± 0.86
333.15 K, 34086 kPa | 805.827 ± 0.87
333.15 K, 35075 kPa | 806.492 ± 0.87
333.15 K, 37894 kPa | 808.332 ± 0.88
333.15 K, 40111 kPa | 809.759 ± 0.88
333.15 K, 41947 kPa | 810.938 ± 0.88
333.15 K, 44974 kPa | 812.823 ± 0.89
333.15 K, 45490 kPa | 813.093 ± 0.89
333.15 K, 47936 kPa | 814.509 ± 0.9
333.15 K, 49920 kPa | 815.727 ± 0.9
333.15 K, 51953 kPa | 816.927 ± 0.91
333.15 K, 54876 kPa | 818.691 ± 0.92
333.15 K, 58057 kPa | 820.5 ± 0.92
333.15 K, 59993 kPa | 821.547 ± 0.93
333.15 K, 62049 kPa | 822.689 ± 0.93
333.15 K, 64970 kPa | 824.293 ± 0.94
333.15 K, 66005 kPa | 824.853 ± 0.94
333.16 K, 87.7 kPa | 779.482 ± 0.81
333.16 K, 303.5 kPa | 779.691 ± 0.81
333.16 K, 1003 kPa | 780.346 ± 0.81
333.16 K, 12011 kPa | 789.847 ± 0.82
333.16 K, 17992 kPa | 794.568 ± 0.83
333.16 K, 20036 kPa | 796.123 ± 0.84
333.16 K, 25027 kPa | 799.667 ± 0.85
333.16 K, 33073 kPa | 805.134 ± 0.86
338.15 K, 80.9 kPa | 775.106 ± 0.81
338.15 K, 309.8 kPa | 775.333 ± 0.81
338.15 K, 561.6 kPa | 775.578 ± 0.81
338.15 K, 898.5 kPa | 775.911 ± 0.81
338.15 K, 1014.1 kPa | 776.019 ± 0.81
338.15 K, 2936.1 kPa | 777.859 ± 0.81
338.15 K, 5018.6 kPa | 779.821 ± 0.81
338.15 K, 10034 kPa | 784.276 ± 0.82
338.15 K, 14885 kPa | 788.349 ± 0.83
338.15 K, 17956 kPa | 790.925 ± 0.83
338.15 K, 19927 kPa | 792.473 ± 0.84
338.15 K, 22041 kPa | 794.077 ± 0.84
338.15 K, 25026 kPa | 796.362 ± 0.85
338.15 K, 29994 kPa | 799.911 ± 0.86
338.15 K, 32882 kPa | 801.907 ± 0.87
338.15 K, 33937 kPa | 802.603 ± 0.87
338.15 K, 35012 kPa | 803.345 ± 0.87
338.15 K, 39987 kPa | 806.717 ± 0.88
338.15 K, 41990 kPa | 808.025 ± 0.89
338.15 K, 44978 kPa | 809.926 ± 0.89
338.15 K, 47971 kPa | 811.881 ± 0.9
338.15 K, 49999 kPa | 813.099 ± 0.91
338.15 K, 52127 kPa | 814.375 ± 0.91
338.15 K, 57940 kPa | 817.865 ± 0.93
338.15 K, 60014 kPa | 819.058 ± 0.93
338.15 K, 65012 kPa | 821.872 ± 0.94
338.15 K, 66057 kPa | 822.451 ± 0.95
338.16 K, 2000.2 kPa | 776.987 ± 0.81
338.16 K, 6917.3 kPa | 781.55 ± 0.82
338.16 K, 9046.9 kPa | 783.457 ± 0.82
338.16 K, 11959 kPa | 785.981 ± 0.82
338.16 K, 27976 kPa | 798.446 ± 0.85
338.16 K, 31949 kPa | 801.318 ± 0.86
338.16 K, 37962 kPa | 805.345 ± 0.88
338.16 K, 54992 kPa | 816.085 ± 0.92
338.16 K, 62074 kPa | 820.252 ± 0.94
338.16 K, 67534 kPa | 823.221 ± 0.95
343.15 K, 73.7 kPa | 769.631 ± 0.81
343.15 K, 297.3 kPa | 769.853 ± 0.81
343.15 K, 520.3 kPa | 770.07 ± 0.81
343.15 K, 911.7 kPa | 770.459 ± 0.81
343.15 K, 1017.7 kPa | 770.563 ± 0.81
343.15 K, 1994.6 kPa | 771.497 ± 0.81
343.15 K, 2332.5 kPa | 771.83 ± 0.81
343.15 K, 2968.3 kPa | 772.434 ± 0.81
343.15 K, 4994.8 kPa | 774.313 ± 0.81
343.15 K, 6976.6 kPa | 776.117 ± 0.82
343.15 K, 9002.6 kPa | 777.941 ± 0.82
343.15 K, 10060 kPa | 778.847 ± 0.82
343.15 K, 12025 kPa | 780.506 ± 0.82
343.15 K, 14928 kPa | 782.929 ± 0.83
343.15 K, 17975 kPa | 785.398 ± 0.84
343.15 K, 19985 kPa | 786.983 ± 0.84
343.15 K, 22033 kPa | 788.56 ± 0.84
343.15 K, 25091 kPa | 790.858 ± 0.85
343.15 K, 28045 kPa | 793.012 ± 0.86
343.15 K, 30082 kPa | 794.441 ± 0.86
343.15 K, 32170 kPa | 795.891 ± 0.87
343.15 K, 33097 kPa | 796.546 ± 0.87
343.15 K, 35030 kPa | 797.771 ± 0.87
343.15 K, 37943 kPa | 799.701 ± 0.88
343.15 K, 40012 kPa | 801.058 ± 0.89
343.15 K, 41972 kPa | 802.307 ± 0.89
